Measurements taken from patent US10758549B2, “Compositions of obeticholic acid and methods of use” (Intercept Pharmaceuticals, Inc., priority 2015, dated 2020).

Tests used:
[1] = Example 10: clinical pharmacology / pharmacokinetics of OCA; assay type: in vivo, human; conditions: for systemic exposure versus dose: 5, 10, and 25 mg once daily for 14 days; for metabolite-to-parent ratio: after daily administration of obeticholic acid; for median time (Tmax) of peak plasma concentrations: glyco-OCA and tauro-OCA conjugates, multiple oral doses of OCA 10 mg once daily
Protocol: This example describes clinical pharmacology and dosing of obeticholic acid (OCA—including obeticholic acid compositions described herein). […] OCA can be supplied as an oral tablet containing obeticholic acid in a formulation as described herein.
Median Tmax for glyco-OCA and tauro-OCA is 10 hours.
Following an oral administration of 25 mg [^14C]-OCA, about 87% of the dose is excreted in feces through biliary secretion. Less than 3% of the dose is excreted in the urine with no detection of OCA.

[2] = Physiologic pharmacokinetic model of OCA (population PK fit and simulations); design: species or system human; conditions: normal hepatic function, model estimate
Protocol: Plasma levels of OCA and its conjugates were measured in healthy subjects and cirrhotic patients with varying degrees of hepatic impairment. A physiologic pharmacokinetic model for OCA was developed to quantitatively describe the absorption, distribution, metabolism, and excretion of OCA in patients with and without hepatic impairment. The model was based on a published multi-compartment PK model for CDCA, and consisted of systemic, hepatobiliary, and intestinal systems. The model was used to simulate the pathophysiological abnormalities caused by cirrhosis including decreased hepatic uptake, portal-systemic shunting, decreased liver volume, and differences in amino acid conjugation.
This examples describes development of a physiologic PK model to quantitatively describe the absorption, distribution, metabolism, and excretion of OCA. In addition, the model was used to define the effects of hepatic impairment to predict the systemic and liver exposure to OCA in subjects with various degrees of liver impairment relative to healthy subjects with normal liver function. The model was developed based on 3 studies in healthy volunteers and 2 studies in patients with varying degrees of hepatic impairment […].
Data from was used to develop the model in healthy subjects (n=160) and then adjust for hepatic impairment (n=32) using the data from the above Examples. After development, the model was validated with data sourced from healthy subjects and cirrhotic patients.
The data used in model development included subject identifiers, time of dosing and sample collection, plasma drug concentrations (OCA, glyco-OCA, and tauro-OCA), dose amount, disease status (e.g., Child-Pugh score), and meal consumption information. Study participants received standardized meals at specified times during inpatient observation. Gallbladder contraction was assumed to last 90 minutes after the start of a meal. Drug concentrations below the limit of quantification (BLQ) were imputed to half of the lower limit of quantification (LLOQ). Observed and BLQ concentrations of OCA, glyco-OCA, and tauro-OCA associated with samples drawn prior to the first dose were excluded from the analyses.
A number of structural modifications were made to the base CDCA model in order to adapt it for use with OCA. For simplification, a single space was used to represent the gut (small and large intestines). Since OCA is an exogenous molecule, it was assumed that there was no endogenous synthesis and an absorption compartment with a first-order transfer coefficient (Ka) was included to represent the administration and absorption kinetics of an oral OCA dose. Based on steric hindrance by the 6-ethyl group of OCA, no bacterial 7-alpha dehydroxylation biotransformation activity (i.e., CDCA to lithocholic acid) was included in the model. Compartment volumes in the model were fixed to physiological values from the base CDCA model. The OCA model used the physiological flow values for blood, bile and gastrointestinal transit from the original physiologic PK model for CDCA, with the exception of flows from bile duct to gallbladder and from bile duct to gut. The physiological values from the base model led to poor predictions and may not be applicable due to the simplification of the enteral system into a unified gut compartment. The biotransformation and transport rates in the model, being dependent on chemical entity structure, were estimated by fitting the model to the plasma concentration time profiles of OCA, glyco-OCA, and tauro-OCA.
The PK model was first developed using the OCA, glyco-OCA, and tauro-OCA plasma concentration time profiles from healthy volunteers with normal hepatic function. Model parameter estimates related to healthy physiology were then held constant while the PK model was further developed using OCA, glyco-OCA, and tauro-OCA plasma concentration time profiles from patients with hepatic impairment (Child-Pugh scores A, B, and C). […]

[3] = normal hepatic function, Fixed; cited from earlier work
[4] = molecular target: T1, farnesoid X receptor (FXR) (Homo sapiens, UniProt Q96RI1); conditions: in vitro / on FXR; cited from earlier work
T1 sequence (Q96RI1 1-486): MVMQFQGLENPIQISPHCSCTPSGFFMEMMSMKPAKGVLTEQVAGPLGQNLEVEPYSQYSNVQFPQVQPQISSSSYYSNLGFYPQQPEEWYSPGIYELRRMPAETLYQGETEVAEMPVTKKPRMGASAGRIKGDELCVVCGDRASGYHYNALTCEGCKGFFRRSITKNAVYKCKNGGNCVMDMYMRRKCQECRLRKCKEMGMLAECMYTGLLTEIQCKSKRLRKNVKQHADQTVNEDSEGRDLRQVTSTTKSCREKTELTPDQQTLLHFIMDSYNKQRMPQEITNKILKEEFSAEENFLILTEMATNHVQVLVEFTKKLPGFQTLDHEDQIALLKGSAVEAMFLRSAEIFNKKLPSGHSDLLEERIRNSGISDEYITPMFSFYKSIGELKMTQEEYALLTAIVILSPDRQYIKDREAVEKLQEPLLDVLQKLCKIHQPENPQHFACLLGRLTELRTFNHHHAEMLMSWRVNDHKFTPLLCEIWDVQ

Row | Structure (SMILES) | systemic exposure versus dose [1] | metabolite-to-parent ratio [1] | median time (Tmax) of peak plasma concentrations [1] [h] | b38: Glyco-OCA rate of deconjugation to OCA [2] [h⁻¹] | t9: Glyco-OCA transport rate from sinusoidal space to liver [2] [h⁻¹] | t19: Glyco-OCA transport rate from liver to bile duct [2] [h⁻¹] | t33: Glyco-OCA rate of absorption from gut to portal space [2] [h⁻¹] | t12: Glyco-OCA and tauro-OCA transport rate from liver to sinusoidal space [3] [h⁻¹] | pharmacological activity relative to OCA (parent drug) [4] | b37: Tauro-OCA rate of deconjugation to OCA [2] [h⁻¹] | t11: Tauro-OCA transport rate from sinusoidal space to liver [2] [h⁻¹] | t21: Tauro-OCA transport rate from liver to bile duct [2] [h⁻¹] | t35: Tauro-OCA rate of absorption from gut to portal space [2] [h⁻¹]
1 | CC[C@H]1[C@@H](O)[C@@H]2[C@H](CC[C@]3(C)[C@@H]([C@H](C)CCC(=O)NCC(=O)O)CC[C@@H]23)[C@@]2(C)CC[C@@H](O)C[C@@H]12 [glyco-OCA] | increase more than proportionally with dose | 13.8 | 10 | 0.0431 | 1210 | 7.44 | 0.904 | 1.62 | nearly equipotent |  |  |  | 
2 | CC[C@H]1[C@@H](O)[C@@H]2[C@H](CC[C@]3(C)[C@@H]([C@H](C)CCC(=O)NCCS(=O)(=O)O)CC[C@@H]23)[C@@]2(C)CC[C@@H](O)C[C@@H]12 [tauro-OCA] | increase more than proportionally with dose | 12.3 | 10 |  |  |  |  | 1.62 | nearly equipotent | 0.0200 | 1615 | 9.28 | 1.62
